Assay results: patent publication US20150094321A1, “COMBINATION” (GlaxoSmithKline LLC, priority 2009, published 2015)

Tests used:
Test in all cases: Cell line proliferation study
Assay type in all cases: cell-based, human
NCIH520 = details: NCIH520, lung; for IC50: Homo sapiens, NCI-H520, 72 hours, read-out: gIC50
Protocol: (§1) In a separate study, combination drug tests with Compounds A and B were conducted using a panel of cell lines from human colon cancers (n=26), lung cancers (n=15) and pancreatic cancers (n=6). Cell lines were obtained from commercial vendors (ATCC and DSMZ). Cell lines were grown in RPMI-1640 supplemented with 2 mM glutamine, 1 mM sodium pyruvate and 10% fetal bovine serum (except for Capan-1 and HuP-T4 which were grown with 20% fetal bovine serum) and maintained at 37° C. and 5% CO2 in a humid incubator. Assays were performed in 384 well microtiter plates with optimum seeding densities for each cell line.
(§2) The test compounds were prepared as 10 mM stocks in 100% DMSO. Further dilutions of the compounds were made in DMSO. Compound A was diluted horizontally in a separate 96 well microtiter plate in rows D-G using a 3-fold dilution series for 10 dilution points. Compound B was similarly diluted horizontally in a 96 well microtiter plate in rows B-E using a 3-fold dilution series for 10 dilution points.
(§3) The two compounds were combined using equal volumes from each drug plate into cell culture media. […] Both Compound A and Compound B were individually titrated in rows B and C (for Compound B) and rows F and G (for Compound A) of the merged drug plate.
(§4) A 1:10 dilution of the drugs was performed in cell culture media prior to addition to the cells.
(§5) The final concentration range for the test compounds was 250 to 0.013 nM for Compound A and 1000 to […] for Compound B. The positive control consisted of culture media with DMSO at 0.1% and cells. The negative control consisted of culture media with DMSO at 0.1%. The cell lines were incubated at 37° C., 5% CO2 in humid air for 72 hours. Cell proliferation was measured using the CellTiter Glo (Promega) reagent according to the manufacturer's protocol. The plates are treated with CellTiter Glo solution and are analyzed for RLU (relative light units) using a Molecular Devices SpectraMax M5 plate reader.
(§6) The percent intensity values were used in model 205 of XLfit (IDBS, Inc.) in Microsoft Excel to calculate gIC50 values using a 4 parameter logistical fit. The midpoint of the growth window (the gIC50) falls half way between the number of cells at the time of compound addition (T=0) and the growth of control cells treated with DMSO at 72 hrs. The number of cells at time zero (T0) is divided from the intensity value at the bottom of the response curve (Ymin) to generate a measure for cell death (Ymin/T0). A value below 1 for Ymin/T0 indicates stronger potency to induce cell death with the treatment when compared to higher values. […]

NCIH747 = details: NCIH747, colon; for IC50: Homo sapiens, NCI-H747, 72 hours, read-out: gIC50
Protocol: as §1, §2, §3, §4, §5, §6

SW1116 = details: SW1116, colon; for IC50: Homo sapiens, SW 1116, 72 hours, read-out: gIC50
Protocol: as §1, §2, §3, §4, §5, §6

ASPC1 = details: ASPC1, pancreas; for IC50: Homo sapiens, 72 hours, read-out: gIC50
Protocol: as §1, §2, §3, §4, §5, §6

SKMES1 = details: SKMES1, lung; for IC50: Homo sapiens, SK-MES-1, 72 hours, read-out: gIC50
Protocol: as §1, §2, §3, §4, §5, §6

HCT116 = details: HCT116, colon; for IC50: Homo sapiens, HCT-116, 72 hours, read-out: gIC50
Protocol: as §1, §2, §3, §4, §5, §6

NCIH460 = details: NCIH460, lung; for IC50: Homo sapiens, NCI-H460, 72 hours, read-out: gIC50
Protocol: as §1, §2, §3, §4, §5, §6

HCT-15 = details: HC115, colon; for IC50: Homo sapiens, HCT-15, 72 hours, read-out: gIC50
Protocol: as §1, §2, §3, §4, §5, §6

Colo320HSR = details: colon; for IC50: Homo sapiens, COLO-320-HSR, 72 hours, read-out: gIC50
Protocol: as §1, §2, §3, §4, §5, §6

BxPC3 = details: BxPC3, pancreas; for IC50: Homo sapiens, BXPC-3, 72 hours, read-out: gIC50
Protocol: as §1, §2, §3, §4, §5, §6

Colo201 = details: Colo201, colon; for IC50: Homo sapiens, COLO 201, 72 hours, read-out: gIC50
Protocol: as §1, §2, §3, §4, §5, §6

A549 = details: A549, lung; for IC50: Homo sapiens, 72 hours, read-out: gIC50
Protocol: as §1, §2, §3, §4, §5, §6

NCIH508 = details: NCIH508, colon; for IC50: Homo sapiens, NCI-H508, 72 hours, read-out: gIC50
Protocol: as §1, §2, §3, §4, §5, §6

SW1417 = details: SW1417, colon; for IC50: Homo sapiens, 72 hours, read-out: gIC50
Protocol: as §1, §2, §3, §4, §5, §6

Colo205 = details: Colo205, colon; for IC50: Homo sapiens, COLO 205, 72 hours, read-out: gIC50
Protocol: as §1, §2, §3, §4, §5, §6

HCC2998 = details: HCC2998, colon; for IC50: Homo sapiens, HCC 2998, 72 hours, read-out: gIC50
Protocol: as §1, §2, §3, §4, §5, §6

NCIH2170 = details: NCIH2170, lung; for IC50: Homo sapiens, NCI-H2170, 72 hours, read-out: gIC50
Protocol: as §1, §2, §3, §4, §5, §6

Colo320DM = details: colon; for IC50: Homo sapiens, COLO 320DM, 72 hours, read-out: gIC50
Protocol: as §1, §2, §3, §4, §5, §6

## CC(=O)Nc1cccc(-n2c(=O)n(C3CC3)c(=O)c3c(Nc4ccc(I)cc4F)n(C)c(=O)c(C)c32)c1 [Compound A, N-{3-[3-cyclopropyl-5-(2-fluoro-4-iodo-phenylamino)-6,8-dimethyl-2,4,7-trioxo-3,4,6,7-tetrahydro-2H-pyrido[4,3-d]pyrimidin-1-yl]phenyl}acetamide]
NCIH520
  IC50: > 250 nM
  Ymin/T0: 70.2
NCIH747
  IC50: 5.35 nM
  Ymin/T0: 5.55
SW1116
  IC50: 14.6 nM
  Ymin/T0: 2.28
ASPC1
  Ymin/T0: 13.6
  IC50: 19.7 nM
SKMES1
  IC50: 80.4 nM
  Ymin/T0: 19.5
HCT116
  Ymin/T0: 19.40
  IC50: 23.2 nM
NCIH460
  IC50: 63 nM
  Ymin/T0: 39.1
HCT-15
  Ymin/T0: 57.0
  IC50: > 250 nM
Colo320HSR
  IC50: > 250 nM
  Ymin/T0: 78.4
BxPC3
  Ymin/T0: 20.86
  IC50: > 250 nM
Colo201
  Ymin/T0: −8.96
  IC50: 4 nM
A549
  Ymin/T0: 15.9
  IC50: 12.9 nM
NCIH508
  IC50: 22.6 nM
  Ymin/T0: 15.22
SW1417
  IC50: 2.86 nM
  Ymin/T0: 16.19
Colo205
  Ymin/T0: −1.30
  IC50: 0.77 nM
HCC2998
  Ymin/T0: 2.13
  IC50: 16.7 nM
NCIH2170
  IC50: > 250 nM
  Ymin/T0: 59.5
Colo320DM
  IC50: > 250 nM
  Ymin/T0: 81.01

## Cn1ncc(Cl)c1-c1cc(C(=O)N[C@H](CN)Cc2ccc(F)c(F)c2)oc1Cl [Compound B, N-{(1S)-2-amino-1-[(3,4-difluorophenyl)methyl]ethyl}-5-chloro-4-(4-chloro-1-methyl-1H-pyrazol-5-yl)-2-furancarboxamide]
NCIH520
  IC50: 568 nM
  Ymin/T0: 15.0
NCIH747
  IC50: > 1000 nM
  Ymin/T0: 23.79
SW1116
  IC50: > 1000 nM
  Ymin/T0: 37.32
ASPC1
  Ymin/T0: 42.9
  IC50: > 1000 nM
SKMES1
  IC50: > 1000 nM
  Ymin/T0: 49.6
HCT116
  Ymin/T0: 25.31
  IC50: > 1000 nM
NCIH460
  IC50: 664 nM
  Ymin/T0: 20.8
HCT-15
  Ymin/T0: 30.4
  IC50: > 1000 nM
Colo320HSR
  IC50: > 1000 nM
  Ymin/T0: 28.6
BxPC3
  Ymin/T0: 71.87
  IC50: > 1000 nM
Colo201
  Ymin/T0: 80.16
  IC50: > 1000 nM
A549
  Ymin/T0: 32.7
  IC50: > 1000 nM
NCIH508
  IC50: 68.2 nM
  Ymin/T0: 11.12
SW1417
  IC50: > 1000 nM
  Ymin/T0: 3.63
Colo205
  Ymin/T0: 14.87
  IC50: > 1000 nM
HCC2998
  Ymin/T0: −4.90
  IC50: 292 nM
NCIH2170
  IC50: > 1000 nM
  Ymin/T0: 18.2
Colo320DM
  IC50: > 1000 nM
  Ymin/T0: 9.81
